Data taken from patent publication US20230146455A1, “TREATMENT OF INFLAMMATORY DISEASES WITH PEPTIDES AND PHARMACEUTICAL COMPOSITIONS” (Yuyu Pharma, Inc., priority 2020, published 2023).
Converted amounts (≈) assume the structure as drawn. “Also recorded” adds a separate entry of the source. Where two headings read alike, the source gives them in different places. Where a SMILES comes first, the peptide text is derived from it. [ ]: non-standard residue; d: D form. The star is where a group is joined. Pyrrolidin1yl(2S-Ac) = CC(=O)[C@@H]1CCCN1*; Hyp = O=C(O)[C@@H]1C[C@@H](O)CN1; NH(CH2)2O(CH2)2NH2 = NCCOCCN*; Pyrrolidide = C1CCN(*)C1; X1 = CCN(C(C)C)*; NMeEt = CCN(C)*

What was measured:
[1] = Solubility (in water; in saline); format: physicochemical; settings: for solubility: water
[2] = system: IL-6 cytokine release in poly I:C stimulated primary human corneal epithelial cells; assay: Soluble IL-6 cytokine release in poly I:C stimulated primary human corneal epithelial cells by ELISA (Example 2); format: cell-based; settings: 25 μg/mL poly I:C, 24 hours; for Poly I:C induced IL-6 cytokine release (in words): 30, 10, 1, 0.1, 0.01, 0.001 μM
Procedure: Assay protocol as shown below was used to determine the significant effect of test compounds. The data was statistically analyzed by one-way ANOVA with a Bonferroni post test comparing all the columns. The significance was represented by the p value.
Selected YDE peptides (YDE-093, -096, -100, -101, -102, -103, -104, -105, -106 and -107) were evaluated by assessing the soluble IL-6 cytokine release in poly I:C stimulated primary human corneal epithelial cells by ELISA (Biolegend, 430504).
Specifically, primary corneal epithelial cells (ATCC, ATCC PCS-700-010) were seeded on a 6-well culture plate containing the Corneal Epithelial Cell Basal Medium (ATCC, ATCC PCS-700-030) in the Corneal Epithelial Cell Growth Kit (ATCC, ATCC PCS-700-040) in an amount of 1.2×10^5 cells per well, which was then cultured for 24 hours under the conditions of 37° C. and 5% CO2. Then, cells were washed with 1×PBS and replaced with serum free medium which was then cultured for 2 hours under the conditions of 37° C. and 5% CO2.
After 2 hours, cells were treated with compounds at 6 differential concentrations (Hinokitiol/YDE peptides at 30, 10, 1, 0.1, 0.01, and 0.001 μM) with the DMSO final 0.5% and then cultured for 1 hour under the conditions of 37° C. and 5% CO2.
After 1 hour, cells were further treated with 25 μg/mL of poly I:C and cultured for 24 hours under the conditions of 37° C. and 5% CO2.
Following incubation, the supernatant was collected for IL-6 levels was assessed by Sandwich ELISA (Enzyme-linked immunosorbent assay) following manufacturer's instructions. The data was statistically analyzed by one-way ANOVA with a Bonferroni post-test comparing all the columns. The significance was represented by the p value.

[3] = system: IL-6 cytokine release in poly I:C stimulated primary human corneal epithelial cells; assay: Soluble IL-6 cytokine release in poly I:C stimulated primary human corneal epithelial cells by ELISA (Example 6); format: cell-based
Description: To determine the effect of compound by assessing the soluble IL-6 cytokine release in poly I:C stimulated primary human corneal epithelial cells by ELISA. • Test System: Primary Human Corneal Epithelial cells • Assay Format: 96-well plate format • Method of Detection: Enzyme-linked immunosorbent assay • Assay Controls: Hinokitiol Assay protocol as shown below was used to determine the significant effect of test compounds. The data was statistically analyzed by one-way ANOVA with a Bonferroni post test comparing all the columns. The significance was represented by the p value.

Caco-2 cells monolayer = assay: Apparent permeability, 21 day cultured Caco-2 cell monolayer, bi-directional (Example 7); format: in vitro ADME
Procedure: (§1) 10 mM stock solution of test compound was prepared in DMSO. 10 mM stock was diluted with 100% DMSO to prepare 0.2 mM, 0.2 mM stock was diluted with HBSS buffer to a final concentration of 2 μM.
(§2) Add 250 μL of DMEM to the basal compartment of 96 well multi-screen Caco-2 plates and seed 12000 cells/well (0.16×10^6 cells/ml) in all the apical wells required and 2 wells with only media as blank without cells. Place the Caco-2 plate in CO2 incubator at 37° C. for proliferation of cells.
(§3) The utilized media was replenished every alternate day by fresh medium. On 21st day, utilized medium was removed and washed twice with HBSS Buffer and incubated with HBSS buffer 30 min in incubator and initiated the assay.
(§4) 75 μL of test compound was added to apical wells and 250 μL of HBSS buffer with 1% DMSO was added to basal wells. Samples were collected at 120 min and processed as stated below.
(§5) 250 μL of test compound was added to basal wells and 75 μL of HBSS buffer with 1% DMSO was added to apical wells. Samples were collected at 120 min and processed as stated below.
(§6) Single point calibration curve in HBSS buffer was used. 100 μL of supernatant was diluted with 200 μL of water and submitted for LC-MS/MS analysis.
(§7) Efflux ratio=Papp of basal to apical samples/Papp of apical to basal samples
(§8) Recovery: {(dQ of Apical+dQ of Basal)/Standard dQ}*100

[4] = as above; format: in vitro ADME; settings: human; for recovery at 120 min, 2 μM: Caco-2, 2 μM
Procedure: as §1, §2, §3, §4, §5, §6, §7, §8

Row | Solubility in Water [1] [µg/mL] | solubility [1] [µg/mL] | Structure (SMILES) | Poly I:C induced IL-6 cytokine release (in words) [2] | tested concentrations with significant attenuation of IL-6 cytokine release [2] | also measured
1 | 10000 (≈ 9.62 mM) | – | CC(C)C[C@H](NC(=O)CNC(=O)[C@H](CC(C)C)NC(=O)[C@H](CCC(N)=O)NC(=O)CNC(=O)[C@@H]1C[C@@H](O)CN1)C(=O)N[C@@H](C)C(=O)NCC(=O)N1CCC[C@H]1C(=O)N[C@@H](CCCCN)C(=O)NCCOCCN [YDE-093] (H-[Hyp]GQLGLAGPK-{NH(CH2)2O(CH2)2NH2}) | attenuation of IL-6 release; also recorded: attenuate Poly I:C induced of IL-6 cytokine release in a dose dependent manner | – | Poly I:C induced IL-6 cytokine release (in words) [3]: attenuate Poly I:C induced of IL-6 cytokine release in a dose dependent manner; tested concentrations with significant attenuation of IL-6 cytokine release [3]: 30 μM, 10 μM, 1 μM and 0.1 μM
2 | – | – | CC(C)NCC(O)COc1cccc2ccccc12 (centres unmarked) [Propranolol, reference compound] | – | – | Classification (Caco-2 Permeability) (Caco-2 cells monolayer): HIGH; recovery at 120 min, 2 μM ([4]; 120 minutes, read-out: A to B % Recovery): 80.1%; recovery at 120 min, 2 μM ([4]; 120 minutes, read-out: B to A % Recovery): 90.3%; Papp A→B at 120 min, 2 μM ([4]; Caco-2, 2 μM, 120 minutes, average values, read-out: Papp Apical to Basal): 23.8 ×10⁻⁶ cm/s; Papp B→A at 120 min, 2 μM ([4]; Caco-2, 2 μM, 120 minutes, average values, read-out: Papp Basal to Apical): 37.1 ×10⁻⁶ cm/s; efflux ratio at 120 min, 2 μM ([4]; Caco-2, Papp B-A / Papp A-B): 1.56
3 | 10000 (≈ 11.7 mM) | – | CC(C)C[C@H](NC(=O)CNC(=O)[C@H](CC(C)C)NC(=O)[C@H](CCC(N)=O)NC(=O)CNC(=O)[C@@H]1C[C@@H](O)CN1)C(=O)N[C@@H](C)C(=O)NCC(=O)N1CCC[C@H]1C(=O)N(C)C [YDE-101] (H-[Hyp]GQLGLAGP-NMe2) | attenuation of IL-6 release | 30 μM, 10 μM, and 1 μM | Poly I:C induced IL-6 cytokine release (in words) ([2]; listed as YDE101): attenuate Poly I:C induced IL-6 cytokine release in a dose dependent manner
4 | – | 10000 (≈ 14.9 mM) | CC(C)C[C@H](NC(=O)CNC(=O)[C@H](CC(=O)O)NC(=O)[C@H](CCC(N)=O)NC(=O)CNC(=O)[C@@H]1C[C@@H](O)CN1)C(=O)N[C@@H](C)C(=O)O [YDE-094, O*GQDGLA] (H-[Hyp]GQDGLA-OH) | – | – | –
5 | – | – | CCN(C)C(=O)[C@@H]1CCCN1C(=O)CNC(=O)[C@H](C)NC(=O)[C@H](CC(C)C)NC(=O)CNC(=O)[C@H](CC(C)C)NC(=O)[C@H](CCC(N)=O)NC(=O)CNC(=O)[C@@H]1C[C@@H](O)CN1 [YDE-103] (H-[Hyp]GQLGLAGP-NMeEt) | attenuation of IL-6 release | – | tested concentrations with significant attenuation of IL-6 cytokine release ([2]; listed as YDE103): 30 μM, 10 μM, 1 μM and 0.1 μM; Poly I:C induced IL-6 cytokine release (in words) ([2]; listed as YDE103): attenuate Poly I:C induced IL-6 cytokine release in a dose dependent manner
6 | 10000 (≈ 11.4 mM) | – | CC(C)C[C@H](NC(=O)CNC(=O)[C@H](CC(C)C)NC(=O)[C@H](CCC(N)=O)NC(=O)CNC(=O)[C@@H]1C[C@@H](O)CN1)C(=O)N[C@@H](C)C(=O)NCC(=O)N1CCC[C@H]1C(=O)N1CCCC1 [YDE-106] (H-[Hyp]GQLGLAGP-Pyrrolidide) | attenuation of IL-6 release | 30 μM, 10 μM, and 1 μM | Poly I:C induced IL-6 cytokine release (in words) ([2]; listed as YDE106): attenuate Poly I:C induced IL-6 cytokine release in a dose dependent manner
7 | – | 10000 (≈ 9.62 mM) | CC(C)C[C@H](NC(=O)CNC(=O)[C@H](CC(C)C)NC(=O)[C@H](CCC(N)=O)NC(=O)CNC(=O)[C@@H]1C[C@@H](O)CN1)C(=O)N[C@@H](C)C(=O)NCC(=O)N1CCC[C@H]1C(=O)N[C@@H](CCCCN)C(=O)NCCOCCN [YDE-096] (H-[Hyp]GQLGLAGPK-{NH(CH2)2O(CH2)2NH2}) | attenuation of IL-6 release; also recorded: attenuate Poly I:C induced of IL-6 cytokine release in a dose dependent manner | – | Poly I:C induced IL-6 cytokine release (in words) [3]: attenuate Poly I:C induced of IL-6 cytokine release in a dose dependent manner; tested concentrations with significant attenuation of IL-6 cytokine release [3]: 30 μM, 10 μM, 1 μM and 0.1 μM
8 | – | 10000 (≈ 11.5 mM) | CCN(C)C(=O)[C@@H]1CCCN1C(=O)CNC(=O)[C@H](C)NC(=O)[C@H](CC(C)C)NC(=O)CNC(=O)[C@H](CC(C)C)NC(=O)[C@H](CCC(N)=O)NC(=O)CNC(=O)[C@@H]1C[C@@H](O)CN1 [YDE-105] (H-[Hyp]GQLGLAGP-NMeEt) | – | – | tested concentrations with significant attenuation of IL-6 cytokine release ([2]; listed as YDE105): 30 μM, 10 μM, and 1 μM; Poly I:C induced IL-6 cytokine release (in words) ([2]; listed as YDE105): attenuate Poly I:C induced IL-6 cytokine release in a dose dependent manner
9 | 10000 (≈ 12.2 mM) | – | CC(=O)[C@@H]1CCCN1C(=O)CNC(=O)[C@H](C)NC(=O)[C@H](CC(C)C)NC(=O)CNC(=O)[C@H](CC(C)C)NC(=O)[C@H](CCC(N)=O)NC(=O)CNC(=O)[C@@H]1C[C@@H](O)CN1 [YDE-100] (H-[Hyp]GQLGLAG-{Pyrrolidin1yl(2S-Ac)}) | attenuation of IL-6 release | 30 μM, and 10 μM | Poly I:C induced IL-6 cytokine release (in words) ([2]; listed as YDE100): attenuate Poly I:C induced IL-6 cytokine release in a dose dependent manner
10 | 10000 (≈ 11.7 mM) | – | CCNC(=O)[C@@H]1CCCN1C(=O)CNC(=O)[C@H](C)NC(=O)[C@H](CC(C)C)NC(=O)CNC(=O)[C@H](CC(C)C)NC(=O)[C@H](CCC(N)=O)NC(=O)CNC(=O)[C@@H]1C[C@@H](O)CN1 [YDE-102] (H-[Hyp]GQLGLAGP-NHEt) | attenuation of IL-6 release | 30 μM, 10 μM, and 1 μM | Poly I:C induced IL-6 cytokine release (in words) ([2]; listed as YDE102): attenuate Poly I:C induced IL-6 cytokine release in a dose dependent manner
11 | – | 10000 (≈ 11.2 mM) | CCN(C(=O)[C@@H]1CCCN1C(=O)CNC(=O)[C@H](C)NC(=O)[C@H](CC(C)C)NC(=O)CNC(=O)[C@H](CC(C)C)NC(=O)[C@H](CCC(N)=O)NC(=O)CNC(=O)[C@@H]1C[C@@H](O)CN1)C(C)C [YDE-107] (H-[Hyp]GQLGLAGP-X1) | attenuation of IL-6 release | 30 μM, 10 μM, and 1 μM | Poly I:C induced IL-6 cytokine release (in words) ([2]; listed as YDE107): attenuate Poly I:C induced IL-6 cytokine release in a dose dependent manner
